# Measurements reported in patent US8691791B2, “Microspheres for treatment of brain tumors” (Biocompatibles UK Limited, priority 2007, dated 2014).
# What was measured:
# Format in all cases: physicochemical
# [1] = Elution of doxorubicin from high AMPS microspheres into distilled water
# Procedure: High AMPS microspheres were loaded with various concentrations of doxorubicin and the microspheres eluted into 250 ml of distilled water (FIG. 2).
# For the higher drug loadings, a burst effect is evident in the first few minutes, followed by a prolonged period of slower release. It is surmised that the burst represents the free drug eluting from the water held within the microspheres, whereas the prolonged elution results from the drug that is “bound” into the spheres essentially by ionic interaction between the charged groups. For the highest loading of drug (from the 20 mg/ml loading solution), the burst effect represents some 45% of the total drug loading of the spheres, the remainder taking several days to completely elute from the carrier. Studies have shown that 100% of the drug is eventually eluted from the microspheres. Drug-loaded beads were lyophilised to remove water and sterilised using gamma irradiation.
# [2] = Maximum loading capacity of DEB with Doxorubicin and Mitoxantrone; settings: beads 700-900 μm
# Procedure: Microspheres of the invention were prepared as described in the Reference Example. Sample beads of the size range 700-900 μm were loaded by immersing the beads in aqueous solutions of Doxorubicin HCl (Dox) and Mitoxantrone 2HCl (Mitox). Loading was monitored using UV-visible spectroscopy at the respective wavelengths for absorption maxima of the two drugs (483 nm and 660 nm respectively). The beads were sized and imaged using an Olympus BX50F4 microscope with a Colorview III camcorder. Compressibility was measured using an Instron 4411 with a 50 N load cell.
# [3] = AQ4 and AQ4N loading profile and maximum loading capacity of DC Bead; settings: DC Bead 500-700 μm; AQ4N target loading 60 mg/mL, 20 hr
# [4] = Irinotecan loading capacity of microspheres (depletion method, UV 369 nm); settings: microspheres 500-700 μm, irinotecan solution 20 mg/ml, at least 4 hours
# Procedure: Irinotecan-loading content and loading efficacy was determined using microspheres, 500-700 μm. A bead slurry was mixed with irinotecan solution (20 mg/ml) in calculated amount, rotating-mixed for at least 4 hours. The solution was measured with UV at 369 nm to determine the irinotecan concentration and the drug-loading in beads (by depletion method). […] Above this the loading efficacy dropped remarkably, indicating saturation of the beads.
# [5] = Elution from irinotecan lyophilised microspheres into PBS buffer
# Excerpt: Irinotecan was eluted from lyophilised microspheres with different loadings of camptothecin into PBS buffer. The elution rate slowed down after lyophilisation when compared with the non-lyophilised samples. […] Drug-loaded beads were lyophilised to removed water and sterilised using gamma irradiation.
SMILES,"drug eluting at 3 hours ([1]; 133.2 μg/ml and 2 mg/ml loaded microspheres, 250 ml distilled water)",drug eventually eluted from the microspheres ([1]; high AMPS microspheres) [%],"burst effect as share of the total drug loading of the spheres ([1]; high AMPS microspheres, highest loading (20 mg/ml loading solution), 250 ml distilled water, first few minutes) [%]",Average (mg) of drug per mL of beads (average maximum capacity of DEB) [2],Mols of loaded drug/Mols of available binding sites [2],maximum loading capacity in DC Bead [3] [mg/mL],concentration range in which irinotecan content in beads increased linearly with loading amount (above it saturation of the beads) [4],elution rate after lyophilisation compared with non-lyophilised samples [5],Average (mg) of drug per mL of beads (average maximum capacity of DEB) ([2]; listed as Mitox)
COc1cccc2c1C(=O)c1c(O)c3c(c(O)c1C2=O)C[C@@](O)(C(=O)CO)C[C@@H]3O[C@H]1C[C@H](N)[C@H](O)[C@H](C)O1 [Doxorubicin],below the detection limit,100,~45,39.0 mg per mL of beads,0.9,40,–,–,–
CCc1c2c(nc3ccc(OC(=O)N4CCC(N5CCCCC5)CC4)cc13)-c1cc3c(c(=O)n1C2)COC(=O)[C@]3(O)CC [Irinotecan],–,–,–,–,–,–,below 50 mg/ml,slowed down,–
O=C1c2c(O)ccc(O)c2C(=O)c2c(NCCNCCO)ccc(NCCNCCO)c21 [Mitoxantrone],–,–,–,20.0 mg per mL of beads,0.5,–,–,–,20 mg per mL of beads
